Experimental data from patent publication US6660768B2, “Parasiticidal compositions and methods of use” (Schering-Plough Animal Health Corporation, priority 2001, dated 2003).

Tests used:
[1] = Example 3A: relative solubility of permethrin in neat solvents, seeded solutions in cold bath, supernatant assayed
Method: (§1) These solutions were poured into 100 mL tubes with screw top caps. These tubes were placed in the cold water bath and allowed to come to equilibrium at the temperature of the bath. […] The seeded preparations were then thoroughly shaken, replaced in the bath and allowed to remain in the bath for a 24 hour period. The preparations were then examined for crystallization, then again thoroughly agitated and replaced in the bath for an additional time period. Samples of the supernatant were removed after additional crystallization had occurred.
After 24 hours the tubes were examined for the relative amount of crystallization that may have occurred in each of the solutions. Where crystallization had occurred, samples of the supernatant were pulled from the vials and the temperature of the bath was lowered to 15° C.
Samples were again taken for assay from the solutions of hexylene glycol and methyl Carbitol® (diethylene glycol monomethyl ether).

[2] = Example 3D: solubility of permethrin in propylene glycol monomethyl ether at 20° C. after crystallization at 0° C.; format: physicochemical
Method: The solution was placed in the bath, and continually stirred. The bath temperature was lowered to 0° C. After crystallization occurred in the solution, the bath temperature setting was raised to 20° C. and the stirred slurry was allowed to equilibrate over a three-day period. After this time, samples of the supernatant were pulled on consecutive days. The crystals were separated from the liquid layer by filtration, and the crystals were washed with petroleum ether. […] The crystals were washed to remove any residual solution that might contaminant their analysis.

[3] = Example 3C: solubility of 30% permethrin in d-limonene/propylene glycol monomethyl ether mixtures at -15° C.; format: physicochemical; conditions: initial 30% permethrin
Method: The temperature was regulated to −15° C. The solutions were placed in the bath and allowed to crystallize and reach equilibrium.

[4] = Example 3B: solubility of permethrin in PM (propylene glycol monomethyl ether), DM (diethylene glycol monomethyl ether) and PM or DPM (dipropylene glycol monomethyl ether)/d-limonene mixtures at low temperatures, seeded
Method: as §1
The solvent mixtures tested were: dipropylene glycol monomethyl ether/d-limonene and propylene glycol monomethyl ether/d-limonene.
These solvent mixtures were evaluated at ratios of 2:1, 1:1, 1:2, and then at 8:2 and 9:1 (the first number refers to one of the glycol ethers, the second number refers to d-limonene).

[5] = Diethylene Glycol Monomethyl Ether, Initial
[6] = Dipropylene Glycol Monomethyl Ether, Initial
[7] = Propylene Glycol Monomethyl Ether, Initial

## CC1(C)C(C=C(Cl)Cl)C1C(=O)OCc1cccc(Oc2ccccc2)c1 (centres unmarked) [permethrin]
[1]; Diethylene Glycol Monomethyl Ether, 20° C.
  Permethrin: 75.02%
[1]; Diethylene Glycol Monomethyl Ether, 25° C.
  Permethrin: 74.90%
[1]; [5]
  Cis Isomer: 28.79%
  Permethrin: 69.70%
  Trans Isomer: 40.91%
[1]; Diethylene Glycol Monomethyl Ether, […] C.
  Permethrin: 74.44%
[1]; Dipropylene Glycol Monomethyl Ether, 15° C.
  Permethrin: 73.83%
[1]; Dipropylene Glycol Monomethyl Ether, 20° C.
  Permethrin: 75.15%
[1]; Dipropylene Glycol Monomethyl Ether, 25° C.
  Permethrin: 75.39%
[1]; [6]
  Cis Isomer: 29.41%
  Permethrin: 70.35%
  Trans Isomer: 40.94%
[1]; Examples 3A-3D, low temperatures, order: d-limonene, PM, DPM, diethylene glycol monomethyl ether, hexylene glycol
  solubility among the tested solvents: greatest solubility in d-limonene
[1]; Hexylene Glycol, 25° C.
  Permethrin: 75.02%
[1]; Hexylene Glycol, Initial
  Cis Isomer: 29.77%
  Permethrin: 71.09%
  Trans Isomer: 41.32%
[1]; Hexylene Glycol, […] C.
  Permethrin: 74.37%
[1]; Propylene Glycol Monomethyl Ether, 15° C.
  Permethrin: 74.85%
[1]; Propylene Glycol Monomethyl Ether, 20° C.
  Permethrin: 74.84%
[1]; Propylene Glycol Monomethyl Ether, 25° C.
  Permethrin: 75.66%
[1]; [7]
  Cis Isomer: 29.55%
  Permethrin: 70.78%
  Trans Isomer: 40.22%
[1]; d-limonene, 20° C.
  Permethrin: 74.84%
[1]; d-limonene, 25° C.
  Permethrin: 75.29%
[1]; d-limonene, Initial
  Cis Isomer: 29.54%
  Permethrin: 70.43%
  Trans Isomer: 40.89%
[2]; Assay of Crystals (filtered, washed), as the cis isomer
  % Permethrin: 100% as the cis isomer
[2]; Initial Assay of 70% Solution in propylene glycol monomethyl ether
  % Permethrin: 72.86%
[2]; in propylene glycol monomethyl ether, 20° C.
  solubility of permethrin: greater than 70%
[2]; supernatant, propylene glycol monomethyl ether, 20° C., 2nd Day after Equilibrium Reached
  % Permethrin: 72.96%
[2]; supernatant, propylene glycol monomethyl ether, 20° C., Assay after Equilibrium Reached
  % Permethrin: 72.93%
[3]; 0% d-limonene in formula
  % permethrin in solution: 23.57%
[3]; 20% d-limonene in formula
  % permethrin in solution: 24.78%
[3]; 33% d-limonene in formula
  % permethrin in solution: 25.52%
[3]; 50% d-limonene in formula
  % permethrin in solution: 27.20%
[3]; 67% d-limonene in formula
  % permethrin in solution: 27.51%
[3]; 100% d-limonene in formula
  % permethrin in solution: 25.93%
[4]; 65% permethrin in DPM/d-limonene, 0% d-limonene of solvent mixture, 0° C.
  % Total Permethrin: 58.25%
[4]; 65% permethrin in DPM/d-limonene, 0% d-limonene of solvent mixture, 5° C.
  % Total Permethrin: 60.53%
[4]; 65% permethrin in DPM/d-limonene, 10% d-limonene of solvent mixture, 10° C.
  % Total Permethrin: 61.42%
[4]; 65% permethrin in DPM/d-limonene, 20% d-limonene of solvent mixture, 10° C.
  % Total Permethrin: 63.46%
[4]; 65% permethrin in DPM/d-limonene, 33% d-limonene of solvent mixture, 0° C.
  % Total Permethrin: 61.65%
[4]; 65% permethrin in DPM/d-limonene, 33% d-limonene of solvent mixture, 5° C.
  % Total Permethrin: 63.92%
[4]; 65% permethrin in DPM/d-limonene, 33% d-limonene of solvent mixture, 10° C.
  % Total Permethrin: 64.93%
[4]; 65% permethrin in DPM/d-limonene, 50% d-limonene of solvent mixture, 0° C.
  % Total Permethrin: 61.55%
[4]; 65% permethrin in DPM/d-limonene, 50% d-limonene of solvent mixture, 5° C.
  % Total Permethrin: 64.83%
[4]; 65% permethrin in DPM/d-limonene, 50% d-limonene of solvent mixture, 10° C.
  % Total Permethrin: 64.30%
[4]; 65% permethrin in DPM/d-limonene, 67% d-limonene of solvent mixture, 0° C.
  % Total Permethrin: 61.33%
[4]; 65% permethrin in DPM/d-limonene, 67% d-limonene of solvent mixture, 5° C.
  % Total Permethrin: 65.55%
[4]; 65% permethrin in DPM/d-limonene, 67% d-limonene of solvent mixture, 10° C.
  % Total Permethrin: 64.92%
[4]; 65% permethrin in DPM/d-limonene, 100% d-limonene of solvent mixture, 0° C.
  % Total Permethrin: 60.27%
[4]; 65% permethrin in DPM/d-limonene, 100% d-limonene of solvent mixture, 5° C.
  % Total Permethrin: 62.73%
[4]; 65% permethrin in DPM/d-limonene, 100% d-limonene of solvent mixture, 10° C.
  % Total Permethrin: 65.88%
[4]; 65% permethrin in PM/d-limonene, 0% d-limonene of solvent mixture, 0° C.
  % Total Permethrin: 52.65%
[4]; 65% permethrin in PM/d-limonene, 0% d-limonene of solvent mixture, 5° C.
  % Total Permethrin: 59.51%
[4]; 65% permethrin in PM/d-limonene, 10% d-limonene of solvent mixture, 10° C.
  % Total Permethrin: 62.08%
[4]; 65% permethrin in PM/d-limonene, 20% d-limonene of solvent mixture, 10° C.
  % Total Permethrin: 64.35%
[4]; 65% permethrin in PM/d-limonene, 33% d-limonene of solvent mixture, 0° C.
  % Total Permethrin: 59.42%
[4]; 65% permethrin in PM/d-limonene, 33% d-limonene of solvent mixture, 5° C.
  % Total Permethrin: 63.08%
[4]; 65% permethrin in PM/d-limonene, 33% d-limonene of solvent mixture, 10° C.
  % Total Permethrin: 63.89%
[4]; 65% permethrin in PM/d-limonene, 50% d-limonene of solvent mixture, 0° C.
  % Total Permethrin: 61.74%
[4]; 65% permethrin in PM/d-limonene, 50% d-limonene of solvent mixture, 5° C.
  % Total Permethrin: 64.05%
[4]; 65% permethrin in PM/d-limonene, 50% d-limonene of solvent mixture, 10° C.
  % Total Permethrin: 64.45%
[4]; 65% permethrin in PM/d-limonene, 67% d-limonene of solvent mixture, 0° C.
  % Total Permethrin: 61.45%
[4]; 65% permethrin in PM/d-limonene, 67% d-limonene of solvent mixture, 5° C.
  % Total Permethrin: 64.86%
